Measurements reported in patent publication US5874455A, “Method for treatment of cataract with radical scavenger” (priority 1993, dated 1999).
Where two headings read alike, the source gives them in different places.

How the values were obtained:
[1] = test system: Diamide-Treated Mice Lenses; assay: Na+/K+ ratio and Ca2+ contents in diamide-treated mice lenses; format: cell-based, mouse (ddY); details: for Ca2+ content (in words) / Na+/K+ ratio (in words): 1 Mm (so in the source), vs control levels; for Ca2+ content / K+ content / Na+ content / Na/K ratio: diamide-treated lenses, 1 mM agent
Method: Male ddY mice, 6 weeks old, were killed by decapitation, and the […] were excised. The lenses were removed by a posterior approach and then transferred on a nylon net to a petri dish containing D-MEM medium (low glucose). The lenses were incubated at 37° C. for 19-20 hr in CO2 incubator under 5% CO2 -air and clear transparent lenses were collected to be used for following experiments. The lenses were incubated at 37° C. for 1.5 hr in 3 ml of isotonic HEPES buffer (10 mM HEPES, 136.2 mM NaCl, 5.3 mM KCl, 1.0 mM K2 HPO4, 1.7 mM CaC2 .cndot.2H2 O, 5.5 mM glucose pH 7.4) containing 1 mM diamide and the HEPES buffer without glucose. Those were transferred to an incubation test tube containing 3 ml of isotonic HEPES buffer (pH 7.4) with 1 mM DDC or GE. The diamide treated and non-treated controls were treated by the 5 hr-incubation without the above agents. The wet weight of these treated lenses were determined. Lenses were dried in vacuo at 100° C. for 8 hr, and then digested in 60% nitric acid (100 μl/lens) at 80° C. to degrade organic substances. One milliliter of purified water was added to the digests, and centrifuged at 3000×g for 10 min. Two tenth ml of the supernatant was mixed with 2 ml of purified water, and was used for measurement of Na^+ and K^+. One tenth milliliter of 100 μg/ml lanthanum chloride was added to the residual supernatant and used for measurement of Ca^2+, Na^+,K^+ and Ca^2+ contents in the lenses were determined by atomic absorption spectrometer (Hitachi 180-80, Tokyo, Japan).

[2] = molecular target: Aldose Reductase from Rat Crystalline Lens (Rattus norvegicus, UniProt P07943); assay: biochemical; format: biochemical
Method: Aldose reductase was prepared from rat lenses in the following manner. Lenses (20 to 30) were homogenized in 20 volumes of 5 mM sodium phosphate buffer (pH 7.4), followed by centrifugation at 18,000×g for 5 min to remove insoluble materials. Solid ammonium sulfate was added to the supernatant fluid to 30% saturation. The suspension was centrifuged at 18,000×g for 10 min and the supernatant was recovered. Aldose reductase was precipitated from 30% saturated solution by the addition of solid ammonium sulfate to 75% saturation, and obtained by centrifugation. The precipitate was collected and suspended in 3.2M ammonium sulfate.
The enzyme solution was assayed by following the absorbance at 340 nm on a Shimadzu UV-2000 spectrophotometer equipped with a temperature-controlled cuvette chamber. The solution (0.1 ml) was added to a cuvette containing phosphate buffer (1.6 ml, pH 6.2, 0.1M final concentration) and NADPH (0.1 ml, 0.25 mM final concentration), and the cuvette was inserted into the spectrophotometer. The reaction was started by the addition of DL-glyceraldehyde (0.1 ml, 50 mM final concentration) to the cuvette, and the decrease of absorbance at 340 nm for 5 min at 25° C. was measured. […] Agents to be tested were dissolved with a minimal amount of dimethylsulfoxide and diluted to the desired concentration with purified water. The resulting solution (0.1 ml) was added to the cuvette. The reference blank (to correct for non-specific oxidation of NADPH and absorption of the agents) was prepared by using water instead of DL-glyceraldehyde solution.

rabbit cornea = assay: In vitro transcorneal penetration of DDC from liposomes; format: in vitro ADME
Method: Male rabbit, 2.0 kg of body weight was sacrificed by a injection of lethal dose of pentobarbital into a […] and then two eyeballs were removed from […]. The cornea was set to the cell in which donor side was filled with liposomes containing DSF and in reservoir side with 10 mM HEPES buffer (pH 7.4) containing 136 mM NaCl, 5.3 mM KCl, 1.0 mM K2 HPO4, 1.7 mM CaCl2 and 5.5 mM glucose, shown in FIG. 2. The penetration was carried out at 37° C. for 0-6 hr. The sample (50 μl) was withdrawn from reservoir side at the indicated times. DDC in the sample was determined by the HPLC method (FIG. 2).

[3] = test system: Diamide-Treatment Mice Lenses; assay: GSH content in diamide-treated mice lenses; format: cell-based, mouse (ddY); details: for GSH content: 1 mM diamide
Method: Male ddY mice, 6 weeks old, were killed by decapitation, and the globes were excised. The lenses were removed by a posterior approach and then transferred on a nylon net to an petri containing D-MEM medium (low glucose). The lenses were incubated at 37 ° C. for […] and clear transparent lenses were collected to be used for following experiments. […] Those were transferred to an incubation test tube containing 3 ml of isotonic HEPES buffer (pH 7.4) containing 5.5 mM glucose with 1 mM DDC or GE (glutathione isopropyl ester). The diamide treated and non-treated controls were treated by the 5 hr--incubation without the above agents. The wet weight of these treated lenses were determined.
The treated lenses were homogenized with 0.5 ml of purified water by Teflon homogenizer. GSH in the homogenate was determined by the method of Beutler using DTNB and the HPLC method followed.
Fifty microliter of the lens homogenate were added into 100 μl of acetonitrile containing 100 μg of sodium pantothenate (internal standard) and centrifuged at 12,000 rpm for 10 min. The supernatant solution (10 μl) was injected into a HPLC apparatus, Shimadzu LC-10AD equipped with a column oven, CTO-6A and the chromatography were performed under the conditions: a column of Supersphere 100RP-18 (particle size: 4 μm, column size: 4.0×250 mm), mobile phase of 5% methanol containing 1.0% TFA, flow rate of 1 ml/min, and column temperature at 35° C.

[4] = pH 6.2, 25° C., DL-glyceraldehyde substrate, read-out: IC50

O[C@H](CS)[C@H](O)CS (relative stereo) [DTT]
Ca2+ content (in words) [1]: restored completely
Na+/K+ ratio (in words) [1]: restored completely

CC(=C(CCO)SSCC1CCCO1)N(C=O)Cc1cnc(C)nc1N (stereo in doubt) [Frusultiamine (Alinamine F), Frusultiamine]
IC50 [2, 4]: 1000 µM

CO[C@@]1(NC(=O)CSCC#N)C(=O)N2C(C(=O)O)=C(CSc3nnnn3C)CS[C@@H]21 [CMZ, cefmetazole]
Ca2+ content (in words) [1]: restored completely
Na+/K+ ratio (in words) [1]: restored completely
Ca2+ content [1]: 1.11 ± 0.36 mmol/kg of H2 O
K+ content [1]: 84.91 ± 10.06 mmol/kg of H2 O
Na+ content [1]: 40.59 ± 10.16 mmol/kg of H2 O
Na/K ratio [1]: 0.50 ± 0.19
inhibitory activity against rat lens aldose reductase (in words) [2]: lower inhibitory activities
IC50 [2, 4]: 450 µM

CCN(CC)C(=S)S [DDC, Diethyldithiocarbamate]
DDC content in the reservoir solution relative to that at pH 8.0 (rabbit cornea; pH 6.5, six hours after incubation): one third
effect of BSA on DDC penetration (in words) (rabbit cornea; pH 8.0, 1.75% BSA in donor solution): did not affect

CCN(CC)C(=S)[S-].[Na+] [DDC-Na, Sodium diethyldithiocarbamate]
Ca2+ content [1]: 1.09 ± 0.33 mmol/kg of H2 O
K+ content [1]: 86.25 ± 4.02 mmol/kg of H2 O
Na+ content [1]: 36.56 ± 4.38 mmol/kg of H2 O
Na/K ratio [1]: 0.43 ± 0.07
GSH content ([3]; DTNB method, 1 mM agent): 9.8 μg/lens
GSH content ([3]; HPLC method, 1 mM agent): 3.9 μg/lens
IC50 [2]: 2600 µM

CCN(CC)C(=S)SSC(=S)N(CC)CC [DSF, tetraethylthiuram disulfide]
inhibitory activity against rat lens aldose reductase (in words) [2]: lower inhibitory activities
IC50 [2, 4]: 120 µM

CC(C)OC(=O)CNC(=O)[C@H](CS)NC(=O)CC[C@H](N)C(=O)O [GE, Glutathione isopropyl ester]
Ca2+ content (in words) [1]: restored completely
Na+/K+ ratio (in words) [1]: restored completely
Ca2+ content [1]: 1.39 ± 0.30 mmol/kg of H2 O
K+ content [1]: 79.67 ± 8.63 mmol/kg of H2 O
Na+ content [1]: 51.60 ± 9.57 mmol/kg of H2 O
Na/K ratio [1]: 0.67 ± 0.20
total GSH in diamide-treated lenses (in words) ([3]; DTNB method, 1 mM agent): restored by the control GSH level
GSH content ([3]; DTNB method, 1 mM agent): 10.3 μg/lens
restoring of GSH (in words) ([3]; HPLC method): restoring of GSH
GSH content ([3]; HPLC method, 1 mM agent): 4.0 μg/lens
inhibitory activity against rat lens aldose reductase (in words) [2]: lower inhibitory activities
IC50 [2, 4]: 760 µM

N[C@@H](CCC(=O)N[C@@H](CS)C(=O)NCC(=O)O)C(=O)O [Glutathione (GSH), Glutathione]
IC50 [2, 4]: 1550 µM

O=C(O)c1cc(O)c2c3nc4ccccc4oc-3cc(=O)c2n1 [Pirenoxine (Catalin), Pirenoxine]
inhibitory activity against rat lens aldose reductase (in words) [2]: lower inhibitory activities
IC50 [2, 4]: 17.5 µM

C[C@@H]1O[C@@H](Oc2c(-c3ccc(O)c(O)c3)oc3cc(O)cc(O)c3c2=O)[C@H](O)[C@H](O)[C@H]1O [Quercitrin]
IC50 [2]: 0.26 µM
inhibitory activity against rat lens aldose reductase (in words) [2]: lower inhibitory activities

CC(S)C(=O)NCC(=O)O (stereo not shown) [Tiopronin]
IC50 [2, 4]: 1350 µM
